Experimental data: patent US20080227774A1, “5,5-DISUBSTITUTED-INDOLIZINONE COMPOUNDS” (priority 2007, published 2008)

Molecular target: NS5B polymerase (Hepatitis C virus genotype 1b, UniProt P26663)
Experiment: HCV polymerase inhibition assay (FlashPlate)
Assay type: biochemical
Settings: 20 nM enzyme, 75 min at 28° C.
Procedure: Compounds were tested for HCV polymerase inhibition. Assays were performed in a 96-well streptavidin-coated FlashPlate using 20 nM enzyme, 0.5 μCi of [α-^33P]GTP, 0.6 μM GTP, and 250 nM 5′biotinylated oligo (rG13)/poly rC in 20 mM Tris-HCl, pH 7.5, 5 mM MgCl2, 5 mM dithiothreitol, 0.1 g/L bovine serum albumin, and 100 U/ml RNAse inhibitor. The reaction was stopped by aspiration after 75 min at 28° C. and the plate was washed several times. After washing and drying the plate, incorporated radioactivity was counted using a Microbeta scintillation counter. IC50 values were calculated relative to the uninhibited control and inhibition data were fitted to a 4-parameter IC50 equation. For very potent inhibitors, the data were fitted to a tight binding quadratic equation to obtain IC50 values.

Sequence of NS5B polymerase (P26663 2420-3010): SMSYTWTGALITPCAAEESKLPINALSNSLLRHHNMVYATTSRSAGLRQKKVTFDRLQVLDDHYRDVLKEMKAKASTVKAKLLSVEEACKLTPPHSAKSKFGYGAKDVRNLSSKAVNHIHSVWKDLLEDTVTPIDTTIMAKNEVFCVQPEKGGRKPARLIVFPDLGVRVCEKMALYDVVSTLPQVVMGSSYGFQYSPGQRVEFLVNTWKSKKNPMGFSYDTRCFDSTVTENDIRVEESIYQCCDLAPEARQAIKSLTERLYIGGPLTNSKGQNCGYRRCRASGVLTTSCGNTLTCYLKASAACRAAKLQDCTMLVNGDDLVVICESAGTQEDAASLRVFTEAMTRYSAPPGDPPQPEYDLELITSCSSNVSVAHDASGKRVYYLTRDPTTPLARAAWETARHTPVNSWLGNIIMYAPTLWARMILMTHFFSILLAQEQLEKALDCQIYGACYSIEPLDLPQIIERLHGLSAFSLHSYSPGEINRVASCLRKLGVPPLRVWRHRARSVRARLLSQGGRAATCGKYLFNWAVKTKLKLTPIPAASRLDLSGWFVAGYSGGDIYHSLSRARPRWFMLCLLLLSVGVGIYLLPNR

| SMILES | IC50 [µM] |
| --- | --- |
| C[C@]1(Cc2ccc(F)cc2)C(=O)C(C2=NS(=O)(=O)c3cc(NS(C)(=O)=O)ccc3N2)=C(O)c2cccn21 [Example 3, N-{3-[5-(S)-(4-Fluoro-benzyl)-8-hydroxy-5-methyl-6-oxo-5,6-dihydro-indolizin-7-yl]-1,1-dioxo-1,4-dihydro-1λ^6-benzo[1,2,4]thiadiazin-7-yl}-methanesulfonamide] | < 50 |
| CC(C)CCC1(C)C(=O)C(C2=NS(=O)(=O)c3cc(NS(C)(=O)=O)ccc3N2)=C(O)c2cccn21 (stereo not shown) [Example 2, N-{3-[8-Hydroxy-5-methyl-5-(3-methylbutyl)-6-oxo-5,6-dihydroindolizin-7-yl]-1,1-dioxo-1,2-dihydro-1λ^6-benzo[1,2,4]thiadiazin-7-yl}methanesulfonamide] | < 50 |
| CC1(Cc2ccc(F)c(Cl)c2)C(=O)C(C2=NS(=O)(=O)c3cc(NS(C)(=O)=O)ccc3N2)=C(O)c2cccn21 (stereo not shown) [Example 4, N-{3-[5-(3-Chloro-4-fluoro-benzyl)-8-hydroxy-5-methyl-6-oxo-5,6-dihydro-indolizin-7-yl]-1,1-dioxo-1,4-dihydro-1λ^6-benzo[1,2,4]thiadiazin-7-yl}-methanesulfonamide] | < 50 |
| CC(C)CCC1(C)C(=O)C(C2=Nc3ccccc3S(=O)(=O)N2)=C(O)c2cccn21 (stereo not shown) [Example 1, 7-(1,1-Dioxo-1,2-dihydro-1λ^6-benzo[1,2,4]thiadiazin-3-yl)-8-hydroxy-5-methyl-5-(3-methylbutyl)indolizin-6-one] | < 50 |
